According to PMC11110727, “Exploiting thiol-functionalized benzosiloxaboroles for achieving diverse substitution patterns – synthesis, characterization and biological evaluation of promising antibacterial agents” (RSC Medicinal Chemistry, 2024):
Values after ≈ are worked out from the molar mass of the structure shown.

Tests used:
[1] = system: Staphylococcus aureus, MSSA and MRSA strains; assay: Antibacterial activity against S. aureus strains (text summaries); format: cell-based; conditions: Staphylococcus aureus; both MSSA and MRSA strains; read-out: MIC values against Staphylococcus aureus
Experimental: (§1) Direct antimicrobial activity was determined against the following standard strains: (1) Gram-positive cocci: methicillin-sensitive Staphylococcus aureus ATCC 6538P (MSSA), methicillin-resistant S. aureus subsp. aureus ATCC 43300 (MRSA), S. epidermidis ATCC 12228, Enterococcus faecium ATCC 6057, E. faecalis ATCC 29212, Bacillus subtilis ATCC 6633; (2) Gram-negative bacteria from Enterobacteriales order: Klebsiella pneumoniae ATCC 13883, Escherichia coli ATCC 25922, Enterobacter cloacae DSM 6234, Proteus mirabilis ATCC 12453, Serratia marcescens ATCC 13880; (3) Gram-negative non-fermentative rods: Acinetobacter baumannii ATCC 19606, Pseudomonas aeruginosa ATCC 27853, Stenotrophomonas maltophilia ATCC 12714, S. maltophilia ATCC 13637, Burkholderia cepacia ATCC 25416, Bordetella bronchiseptica ATCC 4617; (4) yeasts: Candida albicans ATCC 90028, C. krusei ATCC 6258, C. parapsilosis ATCC 22019, C. tropicalis (Castellani) Berkhout ATCC 750, C. tropicalis IBA 171, C. guilliermondii IBA 155, and Saccharomyces cerevisiae ATCC 9763. Moreover, 5 clinical strains of methicillin-resistant S. aureus were also included: NMI 664 K, NMI 1576 K, NMI 1712 K, NMI 1991 K, and NMI 2541 K. All strains were stored at −80 °C. Prior to testing, each bacterial strain was subcultured twice on tryptic soy agar TSA (bioMerieux) medium and yeast strains on Sabouraud dextrose agar (bioMerieux) for 24–48 h at 30 °C to ensure viability. The antimicrobial activity was evaluated as previously described[26] by the disc-diffusion method and the MIC determination assays according to the EUCAST (ref. [71] and [72]) and CLSI (ref. [53] and [73]) recommendations. Assessment of bactericidal (MBC) and fungicidal (MFC) activities was performed according to the CLSI recommendations.[54,74] The following reference agents were used: fluconazole (in the case of fungi), linezolid (for Gram-positive bacteria), and nitrofurantoin (for Gram-negative rods). The new benzosiloxaboroles were dissolved in DMSO (Sigma).

C. tropicalis IBA 171 = assay: Antifungal activity: MIC/MFC, disc-diffusion; format: cell-based; conditions: for MIC: Candida tropicalis, IBA171, read-out: MIC; for diameter of inhibition zone: C. tropicalis IBA 171, (-) = zone not observed, paper discs 9 mm
Procedure, shortened: (§2)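 MIC values come from CLSI/EUCAST-based dilution testing, with cidal concentrations (MBC or MFC) assessed by CLSI procedures and zones by disc diffusion. Compounds were prepared in DMSO.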

C. tropicalis ATCC 750 = assay: Antifungal activity: MIC/MFC, disc-diffusion; format: cell-based; conditions: for MIC: Candida tropicalis, ATCC750, read-out: MIC; for diameter of inhibition zone: C. tropicalis ATCC 750, (-) = zone not observed, paper discs 9 mm
Procedure, shortened: as §2

[2] = system: C. parapsilosis ATCC 22019; assay: Antifungal activity: MIC/MFC, disc-diffusion; format: cell-based; conditions: for MIC: Lodderomyces parapsilosis, ATCC22019, read-out: MIC; for diameter of inhibition zone: C. parapsilosis ATCC 22019, (-) = zone not observed, paper discs 9 mm
Procedure, shortened: as §2

[3] = system: S. aureus NMI 1576 K MRSA; assay: Antibacterial activity against clinical MRSA: MIC/MBC; format: cell-based; conditions: Staphylococcus aureus, NMI 1576 K MRSA
Experimental: as §1

[4] = system: S. aureus NMI 2541 K MRSA; assay: as above; format: cell-based; conditions: Staphylococcus aureus, NMI 2541 K MRSA
Experimental: as §1

[5] = system: S. aureus NMI 1991 K MRSA; assay: as above; format: cell-based; conditions: Staphylococcus aureus, NMI 1991 K MRSA
Experimental: as §1

[6] = system: S. aureus NMI 1712 K MRSA; assay: as above; format: cell-based; conditions: Staphylococcus aureus, NMI 1712 K MRSA
Experimental: as §1

S. aureus NMI 664 K MRSA = assay: as above; format: cell-based; conditions: Staphylococcus aureus, NMI 664 K MRSA
Experimental: as §1

[7] = system: Human normal lung fibroblasts MRC-5; assay: MTT-based viability (cytotoxicity) assay; conditions: for IC50: Homo sapiens, MRC5, 48 h
Procedure, shortened: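 MRC-5 pd30 human lung fibroblasts in supplemented MEME at 37 °C, 5% CO2; viability by MTT, absorbance 570 nm, triplicate, as percent of control cells. Selectivity index taken as IC50/MIC against S. aureus MRSA strains.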

[8] = read-out: MBC (first MBC where Eagle effect)

| Compound | MIC (C. tropicalis IBA 171) | MIC (C. tropicalis ATCC 750) | MIC [2] | viability of MRC-5 ([7]; 6.25 µg·mL−1, 48 h) | viability of MRC-5 ([7]; 12.5 µg·mL−1, 48 h) | viability of MRC-5 ([7]; 25 µg·mL−1, 48 h) | viability of MRC-5 ([7]; 50 µg·mL−1, 48 h) | viability of MRC-5 ([7]; 100 µg·mL−1, 48 h) | viability of MRC-5 ([7]; 200 µg·mL−1, 48 h) | viability of MRC-5 ([7]; 400 µg·mL−1, 48 h) | IC50 [7] | diameter of inhibition zone (C. tropicalis IBA 171) | diameter of inhibition zone (C. tropicalis ATCC 750) | diameter of inhibition zone [2] | other results |
| --- | --- | --- | --- | --- | --- | --- | --- | --- | --- | --- | --- | --- | --- | --- | --- |
| C[Si]1(C)OB(O)c2cc(F)c(SC3CC(=O)NC3=O)c(F)c21 (stereo not drawn) [Compound 12, 3-((5,7-Difluoro-3-hydroxy-1,1-dimethyl-1,3-dihydrobenzo[c][1,2,5]oxasilaborol-6-yl)thio)pyrrolidine-2,5-dione] | > 400 µg/mL | > 400 µg/mL | > 400 µg/mL | 103.0±1.5 % of control ± SD | 104.4±1.9 % of control ± SD | 94.9±2.3 % of control ± SD | 86.1±6.9 % of control ± SD | 76.4±3.5 % of control ± SD | 46.9±2.7 % of control ± SD | 0.4±0.2 % of control ± SD | 167 µg/mL (≈ 488 µM) |  |  |  | MIC [1]: 1.56 to 12.5 µg/mL (≈ 4.55 to 36.4 µM); MBC [3, 8]: 100 µg/mL (≈ 291 µM); MIC ([3]; read-out: MIC): 6.25 µg/mL (≈ 18.2 µM); MBC [4, 8]: 200 µg/mL (≈ 583 µM); MIC ([4]; read-out: MIC): 12.5 µg/mL (≈ 36.4 µM); MBC [5, 8]: 100 µg/mL (≈ 291 µM); MIC ([5]; read-out: MIC): 12.5 µg/mL (≈ 36.4 µM); MBC [6, 8]: 200 µg/mL (≈ 583 µM); MIC ([6]; read-out: MIC): 12.5 µg/mL (≈ 36.4 µM); MBC (S. aureus NMI 664 K MRSA; [8]): 200 µg/mL (≈ 583 µM); MIC (S. aureus NMI 664 K MRSA; read-out: MIC): 12.5 µg/mL (≈ 36.4 µM) |
| C[Si]1(C)OB(O)c2cc(F)c(SC3CC(=O)N(c4ccc(Br)c(C(F)(F)F)c4)C3=O)c(F)c21 (stereo not drawn) [Compound 16, 1-(4-Bromo-3-(trifluoromethyl)phenyl)-3-((5,7-difluoro-3-hydroxy-1,1-dimethyl-1,3-dihydrobenzo[c][1,2,5]oxasilaborol-6-yl)thio)pyrrolidine-2,5-dione] | 50 µg/mL (≈ 88.3 µM) | 50 µg/mL (≈ 88.3 µM) | 50 µg/mL (≈ 88.3 µM) | 97.0±0.2 % of control ± SD | 84.8±2.7 % of control ± SD | 78.5±1.6 % of control ± SD | 62.7±2.5 % of control ± SD | 46.0±1.4 % of control ± SD | 0.4±0.2 % of control ± SD | 0.1±0.0 % of control ± SD | 76.2 µg/mL (≈ 135 µM) | 19 mm | 19 mm | 24 mm |  |
| C[Si]1(C)OB(O)c2ccc(SC3CC(=O)N(c4ccc(Br)c(C(F)(F)F)c4)C3=O)c(F)c21 (stereo not drawn) [Compound 17, 1-(4-Bromo-3-(trifluoromethyl)phenyl)-3-((7-fluoro-3-hydroxy-1,1-dimethyl-1,3-dihydrobenzo[c][1,2,5]oxasilaborol-6-yl)thio)pyrrolidine-2,5-dione] | 200 µg/mL (≈ 365 µM) | 100 µg/mL (≈ 182 µM) | 50 µg/mL (≈ 91.2 µM) | 99.9±4.6 % of control ± SD | 96.1±2.3 % of control ± SD | 87.6±0.2 % of control ± SD | 89.2±8.5 % of control ± SD | 71.2±1.3 % of control ± SD | 29.5±0.3 % of control ± SD | 0.0±0.0 % of control ± SD | 140 µg/mL (≈ 254 µM) | 16 mm | 14 mm | 22 mm |  |
| C[Si]1(C)OB(O)c2cc(F)c(S(N)(=O)=O)c(F)c21 [Compound 27, 5,7-Difluoro-3-hydroxy-1,1-dimethyl-1,3-dihydrobenzo[c][1,2,5]oxasilaborole-6-sulfonamide] | > 400 µg/mL | > 400 µg/mL | > 400 µg/mL | 74.1±3.1 % of control ± SD | 74.1±1.4 % of control ± SD | 79.3±9.5 % of control ± SD | 79.7±7.5 % of control ± SD | 74.3±7.9 % of control ± SD | 68.5±3.4 % of control ± SD | 66.2±2.4 % of control ± SD | > 400 µg/mL |  |  |  |  |
| C[Si]1(C)OB(O)c2cc(F)c(S(=O)(=O)Nc3ccc(F)cc3)c(F)c21 [Compound 28, 5,7-Difluoro-N-(4-fluorophenyl)-3-hydroxy-1,1-dimethyl-1,3-dihydrobenzo[c][1,2,5]oxasilaborole-6-sulfonamide] | > 400 µg/mL | > 400 µg/mL | > 400 µg/mL | 93.3±1.9 % of control ± SD | 82.6±1.2 % of control ± SD | 75.1±5.4 % of control ± SD | 65.5±1.8 % of control ± SD | 47.7±3.7 % of control ± SD | 32.5±0.0 % of control ± SD | 15.6±0.1 % of control ± SD | 74.9 µg/mL (≈ 193 µM) |  |  |  |  |
